Assay results as given in PMC11897524 (Frontiers in Pharmacology, 2025).

Experiments:
Experiment in all cases: SelectScreen Z′-LYTE kinase assay
Format in all cases: biochemical
ABL1 = ABL1 (Homo sapiens, UniProt P00519)
Experimental: (§1) The kinase selectivity profile of BST-4 was performed by the SelectScreen kinase profiling service (Thermo Fisher Scientific). Kinase selectivity assay was performed using Z′-LYTE ™ screening protocol kit. Briefly, the test compounds were screened in 1% DMSO (final). For 10-point titrations, perform a 3-fold dilution starting at a starting concentration of 50 µM. Then 2.5 µL 4× test compound, 2.4 µL kinase buffer, 5 µL 2× kinase mixture and 2.5 µL 4× ATP solution was added in black 384-well plate. After shaking for 30 s, the plates were incubated for 60 min at room temperature. Add developing reagent solution and shake the plate for 30 s, then incubate for 1 h at room temperature. The Fluorescence intensity per well was read using a fluorescence plate reader. SelectScreen® Kinase Profiling Service used XLfit from IDBS. The dose response curve was curve fit to model number 205 (sigmoidal dose-response model) and inhibition rates were calculated. 50% inhibition was used as a activity threshold. IC50 values were calculated based on curve fitting.

AXL = AXL (Homo sapiens, UniProt P30530)
Experimental: as §1

BTK = BTK (Homo sapiens, UniProt Q06187)
Experimental: as §1

CSF1R = CSF1R (Homo sapiens, UniProt P07333)
Experimental: as §1

DDR1 = DDR1 (Homo sapiens, UniProt Q08345)
Experimental: as §1

EPHA2 = EPHA2 (Homo sapiens, UniProt P29317)
Experimental: as §1

EPHA4 = EPHA4 (Homo sapiens, UniProt P54764)
Experimental: as §1

EPHA6 = EPHA6 (Homo sapiens, UniProt Q9UF33)
Experimental: as §1

EPHA7 = EPHA7 (Homo sapiens, UniProt Q15375)
Experimental: as §1

EPHA8 = EPHA8 (Homo sapiens, UniProt P29322)
Experimental: as §1

EPHB1 = EPHB1 (Homo sapiens, UniProt P54762)
Experimental: as §1

EPHB3 = EPHB3 (Homo sapiens, UniProt P54753)
Experimental: as §1

ERBB2 = ERBB2 (Homo sapiens, UniProt P04626)
Experimental: as §1

FLT1 = FLT1 (Homo sapiens, UniProt P17948)
Experimental: as §1

FYN = FYN (Homo sapiens, UniProt P06241)
Experimental: as §1

JAK2 = JAK2 (Homo sapiens, UniProt O60674)
Experimental: as §1

JAK3 = JAK3 (Homo sapiens, UniProt P52333)
Experimental: as §1

KDR = KDR (Homo sapiens, UniProt P35968)
Experimental: as §1

LCK = LCK (Homo sapiens, UniProt P06239)
Experimental: as §1

MERTK = MERTK (Homo sapiens, UniProt Q12866)
Experimental: as §1

MST1R = MST1R (Homo sapiens, UniProt Q04912)
Experimental: as §1

MUSK = MUSK (Homo sapiens, UniProt O15146)
Experimental: as §1

NTRK1 = NTRK1 (Homo sapiens, UniProt P04629)
Experimental: as §1

NTRK2 = NTRK2 (Homo sapiens, UniProt Q16620)
Experimental: as §1

NTRK3 = NTRK3 (Homo sapiens, UniProt Q16288)
Experimental: as §1

RET = RET (Homo sapiens, UniProt P07949)
Experimental: as §1

ROS1 = ROS1 (Homo sapiens, UniProt P08922)
Experimental: as §1

SRMS = SRMS (Homo sapiens, UniProt Q9H3Y6)
Experimental: as §1

SYK = SYK (Homo sapiens, UniProt P43405)
Experimental: as §1

TEK = TEK (Homo sapiens, UniProt Q02763)
Experimental: as §1

TXK = TXK (Homo sapiens, UniProt P42681)
Experimental: as §1

TYRO3 = TYRO3 (Homo sapiens, UniProt Q06418)
Experimental: as §1

TEK, sequence (Q02763 23-1124): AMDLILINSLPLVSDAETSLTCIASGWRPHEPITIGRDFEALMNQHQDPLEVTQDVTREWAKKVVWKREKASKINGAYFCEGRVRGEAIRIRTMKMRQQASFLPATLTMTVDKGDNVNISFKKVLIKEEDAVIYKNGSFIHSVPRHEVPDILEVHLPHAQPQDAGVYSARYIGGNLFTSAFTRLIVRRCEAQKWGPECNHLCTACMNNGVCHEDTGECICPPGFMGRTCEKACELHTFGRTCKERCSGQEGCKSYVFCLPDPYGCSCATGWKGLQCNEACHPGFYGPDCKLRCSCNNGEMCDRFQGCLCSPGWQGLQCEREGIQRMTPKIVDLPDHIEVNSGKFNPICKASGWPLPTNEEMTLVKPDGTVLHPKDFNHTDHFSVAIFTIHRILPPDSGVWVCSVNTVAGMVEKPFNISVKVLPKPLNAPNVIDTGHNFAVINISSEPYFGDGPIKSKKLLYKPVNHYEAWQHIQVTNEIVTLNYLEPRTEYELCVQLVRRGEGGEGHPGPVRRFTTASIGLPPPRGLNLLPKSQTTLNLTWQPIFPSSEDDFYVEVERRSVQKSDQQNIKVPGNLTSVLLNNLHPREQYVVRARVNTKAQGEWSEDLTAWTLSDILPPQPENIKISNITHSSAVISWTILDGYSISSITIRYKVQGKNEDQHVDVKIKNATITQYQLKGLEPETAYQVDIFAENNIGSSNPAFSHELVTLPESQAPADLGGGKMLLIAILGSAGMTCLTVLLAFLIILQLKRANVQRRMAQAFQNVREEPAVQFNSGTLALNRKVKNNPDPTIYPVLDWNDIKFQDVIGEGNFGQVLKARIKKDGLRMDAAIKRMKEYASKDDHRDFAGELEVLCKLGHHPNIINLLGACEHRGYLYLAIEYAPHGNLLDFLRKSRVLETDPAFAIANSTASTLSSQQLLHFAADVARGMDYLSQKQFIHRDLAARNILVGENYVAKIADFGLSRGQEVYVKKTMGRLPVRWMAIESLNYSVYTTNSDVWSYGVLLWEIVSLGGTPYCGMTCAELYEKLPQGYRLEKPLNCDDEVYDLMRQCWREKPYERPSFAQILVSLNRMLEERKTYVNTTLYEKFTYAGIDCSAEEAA
CSF1R, sequence (P07333 20-972): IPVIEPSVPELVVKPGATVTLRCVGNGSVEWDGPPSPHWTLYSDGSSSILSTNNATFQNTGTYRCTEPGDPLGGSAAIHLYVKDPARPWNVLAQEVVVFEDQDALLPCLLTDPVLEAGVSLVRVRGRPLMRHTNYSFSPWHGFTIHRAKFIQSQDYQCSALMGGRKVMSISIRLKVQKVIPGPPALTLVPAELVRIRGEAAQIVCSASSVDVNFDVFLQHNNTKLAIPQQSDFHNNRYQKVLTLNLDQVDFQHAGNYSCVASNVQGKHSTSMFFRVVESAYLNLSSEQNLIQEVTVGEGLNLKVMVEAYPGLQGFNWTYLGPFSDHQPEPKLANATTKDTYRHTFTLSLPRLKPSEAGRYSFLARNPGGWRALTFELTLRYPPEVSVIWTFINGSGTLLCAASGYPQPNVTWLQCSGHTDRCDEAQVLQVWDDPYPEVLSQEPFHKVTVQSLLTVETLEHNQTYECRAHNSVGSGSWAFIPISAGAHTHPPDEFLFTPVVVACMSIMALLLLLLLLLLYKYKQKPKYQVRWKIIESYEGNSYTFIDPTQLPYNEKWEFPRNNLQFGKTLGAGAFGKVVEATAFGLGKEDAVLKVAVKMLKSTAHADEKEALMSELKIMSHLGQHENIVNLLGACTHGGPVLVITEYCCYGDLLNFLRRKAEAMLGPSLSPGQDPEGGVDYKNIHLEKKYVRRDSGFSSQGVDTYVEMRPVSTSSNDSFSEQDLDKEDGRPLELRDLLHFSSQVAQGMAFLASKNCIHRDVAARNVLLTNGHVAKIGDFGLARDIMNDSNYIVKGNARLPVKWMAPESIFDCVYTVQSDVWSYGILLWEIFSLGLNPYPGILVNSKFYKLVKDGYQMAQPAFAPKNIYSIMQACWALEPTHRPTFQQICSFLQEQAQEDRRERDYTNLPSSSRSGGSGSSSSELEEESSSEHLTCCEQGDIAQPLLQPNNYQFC
AXL, sequence (P30530 26-894): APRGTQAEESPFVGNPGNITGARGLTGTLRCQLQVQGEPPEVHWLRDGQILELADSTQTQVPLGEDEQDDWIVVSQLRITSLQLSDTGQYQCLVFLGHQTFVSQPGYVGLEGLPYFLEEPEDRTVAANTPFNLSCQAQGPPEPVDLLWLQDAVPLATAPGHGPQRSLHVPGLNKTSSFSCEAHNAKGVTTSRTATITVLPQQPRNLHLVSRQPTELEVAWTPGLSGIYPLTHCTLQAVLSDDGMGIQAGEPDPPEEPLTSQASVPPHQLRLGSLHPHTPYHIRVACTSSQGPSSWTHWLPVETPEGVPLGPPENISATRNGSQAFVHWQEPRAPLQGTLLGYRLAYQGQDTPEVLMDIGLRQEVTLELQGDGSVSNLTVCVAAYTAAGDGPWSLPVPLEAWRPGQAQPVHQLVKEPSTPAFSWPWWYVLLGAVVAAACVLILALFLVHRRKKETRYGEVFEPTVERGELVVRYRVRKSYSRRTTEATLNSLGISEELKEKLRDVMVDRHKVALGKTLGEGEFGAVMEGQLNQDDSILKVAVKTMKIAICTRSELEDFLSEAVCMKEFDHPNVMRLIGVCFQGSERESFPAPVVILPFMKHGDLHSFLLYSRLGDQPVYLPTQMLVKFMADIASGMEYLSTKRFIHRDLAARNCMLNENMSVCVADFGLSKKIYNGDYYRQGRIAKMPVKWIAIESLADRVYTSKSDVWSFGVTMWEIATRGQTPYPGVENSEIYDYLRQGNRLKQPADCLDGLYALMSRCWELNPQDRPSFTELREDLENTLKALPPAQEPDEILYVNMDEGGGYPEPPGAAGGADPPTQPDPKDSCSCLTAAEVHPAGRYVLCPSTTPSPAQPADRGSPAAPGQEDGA
TYRO3, sequence (Q06418 41-890): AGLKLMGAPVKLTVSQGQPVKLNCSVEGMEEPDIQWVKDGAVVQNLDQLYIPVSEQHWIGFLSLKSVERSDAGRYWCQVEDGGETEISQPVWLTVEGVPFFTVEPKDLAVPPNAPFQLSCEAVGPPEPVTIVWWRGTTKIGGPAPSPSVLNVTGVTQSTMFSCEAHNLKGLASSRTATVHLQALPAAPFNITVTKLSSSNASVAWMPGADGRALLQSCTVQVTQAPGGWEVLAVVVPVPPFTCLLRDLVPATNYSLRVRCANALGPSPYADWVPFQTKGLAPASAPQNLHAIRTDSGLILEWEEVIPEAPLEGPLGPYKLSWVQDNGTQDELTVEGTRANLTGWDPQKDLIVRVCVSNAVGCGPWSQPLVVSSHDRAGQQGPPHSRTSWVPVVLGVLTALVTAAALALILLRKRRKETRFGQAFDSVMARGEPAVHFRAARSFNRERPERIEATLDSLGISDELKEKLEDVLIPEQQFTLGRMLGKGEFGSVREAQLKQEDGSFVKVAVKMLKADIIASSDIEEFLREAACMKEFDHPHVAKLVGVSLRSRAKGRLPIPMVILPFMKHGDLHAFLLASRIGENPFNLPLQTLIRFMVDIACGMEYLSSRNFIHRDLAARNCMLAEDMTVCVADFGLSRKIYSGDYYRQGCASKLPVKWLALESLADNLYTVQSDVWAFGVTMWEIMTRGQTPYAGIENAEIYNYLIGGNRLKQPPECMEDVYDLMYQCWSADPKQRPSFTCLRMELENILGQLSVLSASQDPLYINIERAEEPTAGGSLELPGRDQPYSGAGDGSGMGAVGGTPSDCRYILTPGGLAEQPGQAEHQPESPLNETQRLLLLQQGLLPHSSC
EPHA6, sequence (Q9UF33 23-1036): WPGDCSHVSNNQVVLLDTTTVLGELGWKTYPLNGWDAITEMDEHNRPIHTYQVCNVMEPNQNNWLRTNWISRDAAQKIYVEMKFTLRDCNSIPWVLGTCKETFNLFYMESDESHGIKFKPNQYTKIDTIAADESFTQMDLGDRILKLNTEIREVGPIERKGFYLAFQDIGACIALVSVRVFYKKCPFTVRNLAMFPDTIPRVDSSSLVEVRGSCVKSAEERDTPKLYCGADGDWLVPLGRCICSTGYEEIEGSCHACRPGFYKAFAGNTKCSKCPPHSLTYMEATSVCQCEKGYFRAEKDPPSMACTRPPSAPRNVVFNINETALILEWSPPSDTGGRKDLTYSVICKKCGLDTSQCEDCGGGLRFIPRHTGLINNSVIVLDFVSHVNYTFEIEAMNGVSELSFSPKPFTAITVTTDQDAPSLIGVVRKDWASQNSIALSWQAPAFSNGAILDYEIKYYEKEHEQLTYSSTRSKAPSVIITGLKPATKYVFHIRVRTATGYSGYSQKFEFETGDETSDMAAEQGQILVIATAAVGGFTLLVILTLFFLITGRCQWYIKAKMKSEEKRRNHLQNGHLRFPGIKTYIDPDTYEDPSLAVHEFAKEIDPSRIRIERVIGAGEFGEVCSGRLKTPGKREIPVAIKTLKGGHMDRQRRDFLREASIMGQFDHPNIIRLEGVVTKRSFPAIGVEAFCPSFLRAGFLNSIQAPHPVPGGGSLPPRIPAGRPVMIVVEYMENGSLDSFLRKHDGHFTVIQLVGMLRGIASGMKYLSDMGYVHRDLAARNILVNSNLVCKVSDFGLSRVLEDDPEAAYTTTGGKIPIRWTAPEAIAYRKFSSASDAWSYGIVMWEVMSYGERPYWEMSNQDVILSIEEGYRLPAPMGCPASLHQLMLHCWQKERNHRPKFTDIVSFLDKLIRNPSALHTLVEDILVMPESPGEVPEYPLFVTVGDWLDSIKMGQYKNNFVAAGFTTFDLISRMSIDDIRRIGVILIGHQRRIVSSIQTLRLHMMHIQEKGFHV

IC50 (ABL1): > 10 µM
inhibition at 1 µM (ABL1): 0.31%
IC50 (AXL): > 10 µM
inhibition at 1 µM (AXL): 1.83%
IC50 (BTK): > 10 µM
inhibition at 1 µM (BTK): 0.11%
IC50 (CSF1R): > 10 µM
inhibition at 1 µM (CSF1R): 2.02%
IC50 (DDR1): > 10 µM
inhibition at 1 µM (DDR1): 3.63%
IC50 (EPHA2): > 10 µM
inhibition at 1 µM (EPHA2): 0.5%
IC50 (EPHA4): > 10 µM
inhibition at 1 µM (EPHA4): 0.58%
IC50 (EPHA6): > 10 µM
inhibition at 1 µM (EPHA6): 0.26%
IC50 (EPHA7): > 10 µM
inhibition at 1 µM (EPHA7): 0.91%
IC50 (EPHA8): > 10 µM
inhibition at 1 µM (EPHA8): 0.72%
IC50 (EPHB1): > 10 µM
inhibition at 1 µM (EPHB1): 3.35%
IC50 (EPHB3): > 10 µM
inhibition at 1 µM (EPHB3): 0.98%
IC50 (ERBB2): > 10 µM
inhibition at 1 µM (ERBB2): 4.43%
IC50 (FLT1): > 10 µM
inhibition at 1 µM (FLT1): 0.14%
IC50 (FYN): > 10 µM
inhibition at 1 µM (FYN): 2.03%
IC50 (JAK2): > 10 µM
inhibition at 1 µM (JAK2): 0.18%
IC50 (JAK3): > 10 µM
inhibition at 1 µM (JAK3): 0.39%
IC50 (KDR): > 10 µM
inhibition at 1 µM (KDR): 1.51%
IC50 (LCK): > 10 µM
inhibition at 1 µM (LCK): 0.77%
IC50 (MERTK): > 10 µM
inhibition at 1 µM (MERTK): 0.07%
IC50 (MST1R): > 10 µM
inhibition at 1 µM (MST1R): 5.02%
IC50 (MUSK): > 10 µM
inhibition at 1 µM (MUSK): 1.26%
IC50 (NTRK1): > 10 µM
inhibition at 1 µM (NTRK1): 0.67%
IC50 (NTRK2): > 10 µM
inhibition at 1 µM (NTRK2): 1.22%
IC50 (NTRK3): > 10 µM
inhibition at 1 µM (NTRK3): 4.75%
IC50 (RET): > 10 µM
inhibition at 1 µM (RET): 0.41%
IC50 (ROS1): > 10 µM
inhibition at 1 µM (ROS1): 0.97%
IC50 (SRMS): > 10 µM
inhibition at 1 µM (SRMS): 0.53%
IC50 (SYK): > 10 µM
inhibition at 1 µM (SYK): 1.92%
IC50 (TEK): > 10 µM
inhibition at 1 µM (TEK): 4.16%
IC50 (TXK): > 10 µM
inhibition at 1 µM (TXK): 0.09%
IC50 (TYRO3): > 10 µM
inhibition at 1 µM (TYRO3): 0.04%
SMILES: CCS(=O)(=O)Cc1cnc(Oc2c(F)cc(F)cc2OCCCCOc2ccc(/C=C/c3cc(OC)cc(OC)c3)cc2)c(-c2cc(C)c3c(=O)[nH]ccn23)c1 [BST-4]
